Experimental data from PMC7806715, “Discovery of small molecules targeting the tandem tudor domain of the epigenetic factor UHRF1 using fragment-based ligand discovery” (Scientific Reports, 2021).
Positions count from the first letter of the chain named.

Key:
[1] = target: T1, TTD-PHD S298D mutant vs. H3K9me3 peptide (Homo sapiens, UniProt Q96T88, S298D); assay: TR-FRET assay: TTD-PHD S298D mutant binding to H3K9me3 peptide; assay type: biochemical; conditions: 2.5 mM 2,4-lutidine
T1 construct: made in house; host or cells: E. coli (host printed for TTD-PHD in general: Rosetta (DE3))
T1 sequence (Q96T88 123-366 S298D): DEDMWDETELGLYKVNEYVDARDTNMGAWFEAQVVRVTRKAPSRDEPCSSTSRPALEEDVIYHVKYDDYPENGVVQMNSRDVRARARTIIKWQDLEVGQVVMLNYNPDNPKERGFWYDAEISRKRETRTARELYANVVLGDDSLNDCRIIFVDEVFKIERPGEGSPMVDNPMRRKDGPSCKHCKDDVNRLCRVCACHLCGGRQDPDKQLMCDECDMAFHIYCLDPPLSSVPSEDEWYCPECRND
Method: (§1) The fragment screen was carried out on low volume 384-well white plates (Corning 4512) and the assay was performed at room temperature. […] After 1 h of incubation, the fluorescent signals at 665 nm and 620 nm of each plate were measured by the Tecan Infinite M1000 plate reader (excitation 340 nm, 60 μs lag time, and 500 μs integration time) and the TR-FRET signal was calculated by the ratio of 665 nm/620 nm fluorescent signal. For the fragment screen, on seven of the library plates there were 32-wells of DMSO control, while there were 8-wells of DMSO control in the last plate. […] The only difference was that the final concentration of […] assay, while the final concentration of His6-UHRF1-FL was 200 nM and biotin-H3K9me3 peptide was 100 nM for the His6-UHRF1-FL TR-FRET assay. The buffer pH was 7.5 for the His6-TTD-PHD and His6-UHRF1-FL assays.

[2] = target: T2, TTD-PHD RR295/296AA mutant vs. H3K9me3 peptide (Homo sapiens, UniProt Q96T88, R295A/R296A); assay: TR-FRET assay: TTD-PHD RR295/296AA mutant binding to H3K9me3 peptide; assay type: biochemical; conditions: 2.5 mM 2,4-lutidine
T2 construct: made in house; host or cells: E. coli (host printed for TTD-PHD in general: Rosetta (DE3))
T2 sequence (Q96T88 123-366 R295A/R296A): T1 sequence (Q96T88 123-366 S298D) with R173A, R174A, D176S
Method: as §1

[3] = no reference given; cited from earlier work
C-FLAG-UHRF1-FL = target: T3, C-FLAG-UHRF1-FL (Homo sapiens, UniProt Q96T88); assay: Intrinsic tryptophan fluorescence of C-FLAG-UHRF1-FL; assay type: binding; conditions: 5 µM protein
T3 construct: His6-UHRF1-full length (His6-UHRF1-FL); His (N); made in house; host or cells: Rosetta (DE3) E. coli, pMCSG7
T3 sequence (Q96T88 1-793): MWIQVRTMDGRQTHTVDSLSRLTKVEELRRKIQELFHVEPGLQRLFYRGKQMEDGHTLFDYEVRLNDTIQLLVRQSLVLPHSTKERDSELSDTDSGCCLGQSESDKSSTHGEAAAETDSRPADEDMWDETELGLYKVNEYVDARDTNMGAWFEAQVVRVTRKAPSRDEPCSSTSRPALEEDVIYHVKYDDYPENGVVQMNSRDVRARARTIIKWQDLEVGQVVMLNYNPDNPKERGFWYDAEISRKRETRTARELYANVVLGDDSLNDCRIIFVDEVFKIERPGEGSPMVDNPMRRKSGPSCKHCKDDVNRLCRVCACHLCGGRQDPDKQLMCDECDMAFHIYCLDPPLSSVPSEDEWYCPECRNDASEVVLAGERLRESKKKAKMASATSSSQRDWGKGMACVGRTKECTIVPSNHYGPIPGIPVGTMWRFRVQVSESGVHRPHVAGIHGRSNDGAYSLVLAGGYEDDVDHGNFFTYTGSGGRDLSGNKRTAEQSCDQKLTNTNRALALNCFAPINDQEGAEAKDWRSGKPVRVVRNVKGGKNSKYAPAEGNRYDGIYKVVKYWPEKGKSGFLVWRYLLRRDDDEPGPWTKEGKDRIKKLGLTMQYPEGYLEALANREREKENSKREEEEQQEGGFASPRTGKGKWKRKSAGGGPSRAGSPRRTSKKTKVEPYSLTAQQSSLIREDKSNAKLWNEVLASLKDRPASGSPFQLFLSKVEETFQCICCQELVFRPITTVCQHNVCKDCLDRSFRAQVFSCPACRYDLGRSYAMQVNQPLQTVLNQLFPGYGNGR
Method: The untagged TTD was diluted to 30 µM by buffer (50 mM sodium phosphate, pH 7.5, 150 mM NaCl) with or without 60 µM of H3K9me3 peptide (1–20) (Anaspec). 10 µL of diluted TTD was added into 384-well flat bottom black plate (Greiner, Cat# 781086). […] The final concentration of TTD was 15 µM and the H3K9me3 peptide (if included) was 30 µM. The experiment was performed at room temperature. […] After compound addition, the intrinsic tryptophan fluorescence was analyzed by the Tecan Infinite M1000 plate reader (excitation 280 nm, emission 334 nm). […] Tryptophan fluorescence monitors 2 , 4 - lutidine binding to His 6 - TTD, His 6 - TTD - PHD, and C - FLAG - UHRF 1 - FL . 2 , 4 - Lutidine dose - dependently quenched the tryptophan fluorescence of TTD (purple circle), while only started to show quenching effect against His 6 - TTD - PHD at mM concentration (blue diamond) . 2 , 4 - Lutidine had no effect on the fluorescence of C - FLAG - UHRF 1 - FL and the control USP 7 - UBL 1 / 2 protein . n= 3 for each data point . (Note : the standard deviation error bars are included, but the error values are often extremely small in this assay) . […]

Cc1ccnc(C)c1 [2,4-lutidine]
inhibition of binding to H3K9me3 peptide [1]: 44.5% | inhibition of binding to H3K9me3 peptide [2]: 57.6% | pKa [3]: 6.99 | quenching of C-FLAG-UHRF1 tryptophan fluorescence (in words) (C-FLAG-UHRF1-FL): did not quench
